The values below are quoted from earlier work in US9980903B2, “Gastric retentive oral dosage form with restricted drug release in the lower gastrointestinal tract” (Depomed, Inc., priority 2001, dated 2018).

For the data set the following is noted: presently available immediate release dosage form.

Structures are written as SMILES.

Regarding `O=C(O)c1cn(C2CC2)c2cc(N3CCNCC3)c(F)cc2c1=O` [Ciprofloxacin, 1-cyclopropyl-6-fluoro-1,4-dihydro-4-oxo-7-(1-piperazinyl)-3-quinolinecarboxylic acid], the “time at which maximum serum concentration is attained after dosing” value was 1 to 2 h.
